One block for each compound: values may come before it.
Assays:
Notch1 = Notch1 inhibition assay (Western Blot in GSCs); format: cell-based, human; conditions: 40 µM, 48 hours, two GSC lines
[1] = system: cancer stem cell transcripts in GSCs; assay: qPCR array for 84 cancer stem cell markers in GSCs; format: cell-based, human; conditions: 40 µM, 48 hours
Experimental: GSCs were treated with 40 µM entacapone for 48 hours to assess whether entacapone would affect expression of stemness-related transcripts. A qPCR array for 84 validated cancer stem cell markers was performed (Qiagen-RT-profiler PCR arrays).

[2] = system: GSCs from two patients with glioblastoma; assay: In vitro extreme limiting dilution analysis (ELDA), GSC self-renewal; format: cell-based, human; conditions: 40 μM, 14 days, vs DMSO
Experimental: To examine whether treatment with Entacapone affects the ability of GSCs to self-renew, serial dilutions of GSCs were cultured from two patients with glioblastoma in the presence of 40 μM entacapone or DMSO (Control) for 14 days.

[3] = system: Patient derived glioma stem cells (GSCs); assay: GSC invasion live imaging (Incucyte); format: cell-based, human; conditions: vs DMSO
Experimental: GSCs in Matrigel 3D matrix, were treated with 40 µM entacapone or DMSO (control) and live imaging was performed in regular time intervals using the Incucyte live cell imaging system. Normalized area of invasion was quantified following normalization of the invading area with the area occupied by the GSC sphere.
Patient derived glioma stem cells (GSCs) were incubated with 70 μM Compound 31 or DMSO (control) for 72 hours and GSC invasion into the surrounding extracellular matrix was quantified in real time using Incucyte Cell Imager. […] GSC invasion is one of the hallmarks of glioblastoma.

FTO = FTO (Homo sapiens, UniProt Q9C0B1); assay: FTO activity assay (demethylation of m6A methylated RNA substrate); format: biochemical; conditions: for inhibition at 20 µM: read-out: reduction of FTO activity / FTO activity inhibition
Experimental: An FTO activity assay was performed to determine the inhibitory activity of compounds provided herein towards FTO and compare them with entacapone. This assay measures the ability of FTO to demethylate an m6A methylated RNA substrate. The assay is specific to FTO and is not affected by the function of ALKBH5, which is another RNA demethylase in eukaryotic cells.

Hela cells = conditions: cited from earlier work
GSC-grafted mice = conditions: cited from earlier work
[4] = system: diffuse intrinsic pontine glioma (DIPG) cells; assay: Limiting dilution assay (LDA), DIPG cell self-renewal; format: cell-based, human; conditions: clonal tumor spheres over 2 weeks
Experimental: A limiting dilution assay (LDA) was used to determine the effect of FTO inhibition with Compound 31 on the self-renewal ability of diffuse intrinsic pontine glioma (DIPG) cells—a type of brain tumor found in an area of the brainstem known as the pons. With this assay DIPG cells are plated on 96-well plates in various numbers (2000 cell per well down to 1 cell per well) and the ability of cells to self-renew and form clonal tumor spheres is measured over a period of 2 weeks.

[5] = system: Patient derived DIPG cells; assay: DIPG cell invasion (Incucyte Cell Imager); format: cell-based, human; conditions: 10 μM, 72 hours, vs DMSO, p<0.05
Experimental: Patient derived DIPG cells were incubated with 10 μM Compound 31 or DMSO (control) for 72 hours and DIPG invasion into the surrounding extracellular matrix was quantified in real time using Incucyte Cell Imager.

Glioma stem cells = assay: Glioma stem cell viability, Cell Titer Glo; format: cell-based, human; conditions: 48 hours
Experimental: Glioma stem cells were incubated with various increasing concentrations of Compound 31 and the percentage of viable cells at 48 hours was quantified using Cell Titer Glo (Promega). […] For the functional assays described below, the IC10 was used to maintain at least 90% viability.

Chain of FTO (Q9C0B1 whole entry, species assumed): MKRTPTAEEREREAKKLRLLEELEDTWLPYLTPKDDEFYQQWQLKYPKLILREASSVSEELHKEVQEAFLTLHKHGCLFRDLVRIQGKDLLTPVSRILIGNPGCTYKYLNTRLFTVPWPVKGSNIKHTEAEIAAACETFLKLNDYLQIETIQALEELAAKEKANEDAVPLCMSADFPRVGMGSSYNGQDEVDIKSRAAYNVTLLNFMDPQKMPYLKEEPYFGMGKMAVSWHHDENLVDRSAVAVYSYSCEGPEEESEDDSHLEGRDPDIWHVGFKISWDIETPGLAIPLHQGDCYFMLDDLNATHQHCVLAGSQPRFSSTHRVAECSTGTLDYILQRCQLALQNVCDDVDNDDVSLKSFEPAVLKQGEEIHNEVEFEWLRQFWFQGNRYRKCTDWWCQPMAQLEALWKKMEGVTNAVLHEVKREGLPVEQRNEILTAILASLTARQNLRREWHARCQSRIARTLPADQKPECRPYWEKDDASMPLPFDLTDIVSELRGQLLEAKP

% FTO activity (FTO; 20 μM): 83%
inhibition at 20 µM (FTO; 20 μM): < 20%
% FTO activity (FTO; 40 μM): 61.5%^
SMILES: CCN(CC)C(=O)/C(C#N)=C/c1cc(O)c(O)c([N+](=O)[O-])c1 [Entacapone, entacapone, reference compound]
Notch1 protein expression (Notch1): induces inhibition of Notch1 protein expression
expression of cancer stem cell transcripts [1]: significant inhibition of several cancer stem cell transcripts
tumor-sphere formation frequency of GSCs [2]: significantly decreased the tumor-sphere formation frequency
normalized GSC invasion area ([3]; 40 µM, Matrigel 3D matrix, 66 hours): inhibits invasion of GSCs
FTO activity inhibition compared with 20 μM compound 31 (FTO; 40 μM): less FTO activity inhibition than 20 UM compound 31

SMILES: C=CC(=O)Nc1ccc([N+](=O)[O-])cc1 [N-(4-nitrophenyl) acrylamide]
IC50 (Hela cells): 1 mM

% FTO activity (FTO; 20 μM): 61%
inhibition at 20 µM (FTO; 20 μM): ≥ 40%
% FTO activity (FTO; 40 μM): 59%
SMILES: CCN(CCN1CC(OC)C1)C(=O)/C(C#N)=C/c1cc(O)c(O)c([N+](=O)[O-])c1 [Compound 1]
FTO inhibitory activity compared to entacapone (FTO): significantly higher FTO inhibitory activity compared to entacapone

SMILES: CCOC(=O)c1ccccc1Nc1c(Cl)ccc(C)c1Cl [ethyl ester of meclofenamic acid]
lifespan (GSC-grafted mice): substantially prolong lifespan
tumor progression (GSC-grafted mice): suppress tumor progression

% FTO activity (FTO; 20 μM): 54%
inhibition at 20 µM (FTO; 20 μM): ≥ 40%
% FTO activity (FTO; 40 μM): 48%
IC50 (Glioma stem cells; Homo sapiens, read-out: IC50, viable cells): 114 µM
SMILES: CCN(CCSCCCF)C(=O)/C(C#N)=C/c1cc(O)c(O)c([N+](=O)[O-])c1 [Compound 31]
self-renewal ability of DIPG cells [4]: significantly inhibits the self-renewal ability of DIPG cells
DIPG invasion into surrounding extracellular matrix [5]: significant inhibition of DIPG invasion
GSC invasion into surrounding extracellular matrix ([3]; 70 μM, 72 hours, p<0.05): significant inhibition of GSC invasion
FTO inhibitory activity compared to entacapone (FTO): significantly higher FTO inhibitory activity compared to entacapone
IC10, viable cells (Glioma stem cells): 70 µM

Source: patent publication US20250074894A1, “NITROPHENYL-ACRYLAMIDES AND USES THEREOF” (BROWN UNIVERSITY, priority 2021, published 2025)
